Assay results: patent US6949669B2, “Organic compounds” (Syngenta Crop Protection, Inc., priority 2000, dated 2005)

Assays:
Type in all cases: in vivo
Setaria = assay: Pre-emergence herbicidal action (Example B1); set-up: key: 1=total damage; 9=no action; details: 1 kg/ha, evaluated 4 weeks later, rating scale 1-9 (1=total damage, 9=no action)
Experimental: (§1) Pre-emergence Herbicidal Action Monocot and dicot test plants are sown in standard soil in plastic pots. Immediately after sowing, the test substances are sprayed on as an aqueous suspension [prepared from a wettable powder (Example F3, b) of WO 97/34485)] or as an emulsion [prepared from an emulsion concentrate (Example F1 c) of WO 97/34485)] in an optimal dosage (500 l of water/ha). The test plants are then cultivated in the greenhouse under optimum conditions. The test is evaluated 4 weeks later on a rating scale of 1-9 (1=total damage, 9=no action). Ratings of 1 to 4 (especially 1 to 3) denote good to very good herbicidal action.

Panicum = assay: Pre-emergence herbicidal action (Example B1); set-up: key: 1=total damage; 9=no action; details: 1 kg/ha, evaluated 4 weeks later, rating scale 1-9 (1=total damage, 9=no action)
Experimental: as §1

Chenopodium [1] = assay: Pre-emergence herbicidal action (Example B1); set-up: key: 1=total damage; 9=no action; details: 1 kg/ha, evaluated 4 weeks later, rating scale 1-9 (1=total damage, 9=no action)
Experimental: as §1

Digitaria = assay: Pre-emergence herbicidal action (Example B1); set-up: key: 1=total damage; 9=no action; details: 1 kg/ha, evaluated 4 weeks later, rating scale 1-9 (1=total damage, 9=no action)
Experimental: as §1

Stellaria [2] = assay: Pre-emergence herbicidal action (Example B1); set-up: key: 1=total damage; 9=no action; details: 1 kg/ha, evaluated 4 weeks later, rating scale 1-9 (1=total damage, 9=no action)
Experimental: as §1

Veronica = assay: Pre-emergence herbicidal action (Example B1); set-up: key: 1=total damage; 9=no action; details: 1 kg/ha, evaluated 4 weeks later, rating scale 1-9 (1=total damage, 9=no action)
Experimental: as §1

Amaranthus [3] = assay: Pre-emergence herbicidal action (Example B1); set-up: key: 1=total damage; 9=no action; details: 1 kg/ha, evaluated 4 weeks later, rating scale 1-9 (1=total damage, 9=no action)
Experimental: as §1

Chenopodium [4] = assay: Post-emergence herbicidal action (Example B2); set-up: key: 1=total damage; 9=no action; details: 1 kg/ha, post-emergence at 2- to 3-leaf stage, evaluated 2 to 3 weeks later, rating scale 1-9 (1=total damage, 9=no action)
From the text: as §1, with “Post-emergence Herbicidal” for “Pre-emergence Herbicidal”, “pots. At the 2- to 3-leaf stage,” for “pots. Immediately after sowing,”, “test plants” for “test substances”, “sprayed with test substances” for “sprayed on”, “evaluated 2 to 3” for “evaluated 4”

Amaranthus [5] = assay: Post-emergence herbicidal action (Example B2); set-up: key: 1=total damage; 9=no action; details: 1 kg/ha, post-emergence at 2- to 3-leaf stage, evaluated 2 to 3 weeks later, rating scale 1-9 (1=total damage, 9=no action)
From the text: as §1, with “Post-emergence Herbicidal” for “Pre-emergence Herbicidal”, “pots. At the 2- to 3-leaf stage,” for “pots. Immediately after sowing,”, “test plants” for “test substances”, “sprayed with test substances” for “sprayed on”, “evaluated 2 to 3” for “evaluated 4”

Stellaria [6] = assay: Post-emergence herbicidal action (Example B2); details: 1 kg/ha, post-emergence at 2- to 3-leaf stage, evaluated 2 to 3 weeks later, rating scale 1-9 (1=total damage, 9=no action)
From the text: as §1, with “Post-emergence Herbicidal” for “Pre-emergence Herbicidal”, “pots. At the 2- to 3-leaf stage,” for “pots. Immediately after sowing,”, “test plants” for “test substances”, “sprayed with test substances” for “sprayed on”, “evaluated 2 to 3” for “evaluated 4”

Row | Compound | Preemergence test rating, Setaria (Setaria) | Preemergence test rating, Panicum (Panicum) | Preemergence test rating, Chenopodium (Chenopodium [1]) | Preemergence test rating, Digitaria (Digitaria) | Preemergence test rating, Stellaria (Stellaria [2]) | Preemergence test rating, Veronica (Veronica) | Preemergence test rating, Amaranthus (Amaranthus [3]) | Postemergence test rating, Chenopodium (Chenopodium [4]) | Postemergence test rating, Amaranthus (Amaranthus [5]) | Postemergence test rating, Stellaria (Stellaria [6])
1 | COc1ccccc1OCC#Cc1cccc(CC#N)c1 [Compound 1.033] | 2 | 2 | 1 | 1 | 1 | 1 | 1 | 2 | 4 | 2
2 | COc1cc(C#N)ccc1OCC#Cc1ccc(Cl)cc1 [Compound 1.098] | 1 | 1 | 1 | 3 | 1 | 1 | 1 | 1 | 1 | 2
3 | COc1cc(C#N)ccc1OCC#Cc1cccc(Br)c1 [Compound 1.104] | 4 | 7 | 1 | 7 | 1 | 1 | 1 | 2 | 2 | 3
4 | COc1cc(C#N)ccc1OCC#Cc1cccc(CC#N)c1 [Compound 1.109] | 6 | 1 | 1 | 1 | 1 | 1 | 1 | 4 | 1 | 2
5 | COc1cc(CC#N)ccc1OCC#Cc1cccc(CC#N)c1 [Compound 1.168] | 4 | 1 | 2 | 3 | 1 | 4 | 1 | – | – | –
6 | COc1cc([N+](=O)[O-])ccc1OCC#Cc1cccc(CC#N)c1 [Compound 1.198] | 3 | 1 | 1 | 1 | 1 | 1 | 1 | 1 | 1 | 3
7 | COc1cc(C#N)ccc1OCC#Cc1cccc(Cl)c1 [Entry 1.095] | – | – | – | – | – | – | – | 2 | 1 | 2
